Data from patent publication US11576947B2, “Oral composition and method” (Kunming Lanchie Dental Hospital, LTD, priority 2019, dated 2023).
Like-named read-outs stand apart in the source and are kept apart here.

Legend:
[1] = Stability test in propylene glycol (Brilliant Blue color dissipation); assay type: physicochemical; parameters: key: ++++: no color dissipation; +++: slightly dissipation; ++: obvious dissipation; +: totally dissipated
[2] = Stability test in aqueous system (Brilliant Blue color dissipation); assay type: physicochemical; parameters: key: ++++: no color dissipation; +++: slightly dissipation; ++: obvious dissipation; +: totally dissipated
[3] = System stability evaluation: compatibility of ingredients with peroxide source and the system; conditions: for Effect on peroxide and system stability: summary of testing of Tables 2 and 3
[4] = hydrogen peroxide not stabilized, cited from earlier work
[5] = propylene glycol, 2.76% carbamide peroxide, 0.002% Brilliant Blue, compound amount 15%, 60 days, room temperature
[6] = water, 2.76% carbamide peroxide, 0.002% Brilliant Blue, compound amount 15%, 60 days, room temperature
[7] = propylene glycol, 2.76% carbamide peroxide, 0.002% Brilliant Blue, compound amount 1%, 60 days, room temperature
[8] = water, 2.76% carbamide peroxide, 0.002% Brilliant Blue, compound amount 1%, 60 days, room temperature
[9] = propylene glycol, 2.76% carbamide peroxide, 0.002% Brilliant Blue, compound amount 2%, 60 days, room temperature
[10] = water, 2.76% carbamide peroxide, 0.002% Brilliant Blue, compound amount 2%, 60 days, room temperature
[11] = propylene glycol, 2.76% carbamide peroxide, 0.002% Brilliant Blue, compound amount 0.1%, 60 days, room temperature
[12] = water, 2.76% carbamide peroxide, 0.002% Brilliant Blue, compound amount 0.1%, 60 days, room temperature

OC[C@@H](O)[C@@H](O)[C@H](O)[C@@H](O)CO [Sorbitol]
Color (color fading grade) ([1]; propylene glycol, 2.76% carbamide peroxide, 0.002% Brilliant Blue, compound amount 60%, 60 days, room temperature): + | Color (color fading grade) ([2]; water, 2.76% carbamide peroxide, 0.002% Brilliant Blue, compound amount 60%, 60 days, room temperature): +

O=C([O-])[O-].[Ca+2] [Precipitate calcium carbonate]
Compatibility with the system (cationic biocide and peroxide source) [3]: not compatible | Effect on peroxide and system stability [3]: activate the peroxide and make the system unstable | Color (color fading grade) [1, 5]: + | Color (color fading grade) [2, 6]: +

OC[C@H]1O[C@H](O[C@]2(CCl)O[C@H](CCl)[C@@H](O)[C@@H]2O)[C@H](O)[C@@H](O)[C@H]1Cl [Sucralose]
Compatibility with the system (cationic biocide and peroxide source) [3]: compatible | Color (color fading grade) ([1]; propylene glycol, 2.76% carbamide peroxide, 0.002% Brilliant Blue, compound amount 0.5%, 60 days, room temperature): +++ | Color (color fading grade) ([2]; water, 2.76% carbamide peroxide, 0.002% Brilliant Blue, compound amount 0.5%, 60 days, room temperature): ++

O=P(O)(O)OP(=O)(O)OP(=O)(O)O [Sodium tripolyphosphate]
Compatibility with the system (cationic biocide and peroxide source) [3]: not compatible | Color (color fading grade) ([1]; propylene glycol, 2.76% carbamide peroxide, 0.002% Brilliant Blue, compound amount 5%, 60 days, room temperature): +

[Cu+2] [Cu(II)]
Oxygen lost % (24 hr, 100 C.) ([4]; metal ion added 0.01 ppm): 24%

CCCCCCCCCCCCOS(=O)(=O)[O-].[Na+] [Sodium Dodecyl Sulfate]
Compatibility with the system (cationic biocide and peroxide source) [3]: incompatible | Effect on peroxide and system stability [3]: activate the peroxide and make the system unstable | Color (color fading grade) [1, 7]: + | Color (color fading grade) [2, 8]: +

O=P([O-])([O-])OP(=O)([O-])[O-].[Ca+2].[Ca+2] [Calcium pyrophosphate]
Color (color fading grade) [1]: + | Color (color fading grade) [2]: +

Fatty Alcohol Polyoxyethylene Ether 9
Compatibility with the system (cationic biocide and peroxide source) [3]: compatible | Color (color fading grade) [1, 9]: +++ | Color (color fading grade) [2, 10]: +++

Lauryl glucoside
Color (color fading grade) [1, 9]: + | Color (color fading grade) [2, 10]: +

CC1CCC(C(C)C)C(O)C1 (centres unmarked) [Menthol]
Compatibility with the system (cationic biocide and peroxide source) [3]: compatible | Color (color fading grade) [1, 11]: +++ | Color (color fading grade) [2, 12]: +++

O=C([O-])CN(CCN(CC(=O)[O-])CC(=O)O)CC(=O)O.[Na+].[Na+] [Disodium EDTA]
Color (color fading grade) [1, 11]: +++ | Color (color fading grade) [2, 12]: +++

Natural calcium carbonate
Compatibility with the system (cationic biocide and peroxide source) [3]: not compatible | Color (color fading grade) [1, 5]: + | Color (color fading grade) [2, 6]: +

N=C(NCCCCCCNC(=N)NC(=N)Nc1ccc(Cl)cc1)NC(=N)Nc1ccc(Cl)cc1 [Chlorhexydine, reference compound]
Color (color fading grade) [1, 11]: ++ | Color (color fading grade) [2, 12]: +

[Al+3] [Al (III)]
Oxygen lost % (24 hr, 100 C.) ([4]; metal ion added 10 ppm): 2%

O=C1NS(=O)(=O)c2ccccc21.[Na] [Sodium saccharin]
Compatibility with the system (cationic biocide and peroxide source) [3]: compatible | Color (color fading grade) [1]: +++ | Color (color fading grade) [2]: ++

O=P([O-])([O-])OP(=O)([O-])[O-].[Na+].[Na+].[Na+].[Na+] [Tetrasodium pyrophosphate]
Compatibility with the system (cationic biocide and peroxide source) [3]: not compatible | Color (color fading grade) [1]: + | Color (color fading grade) [2]: +

[Zn+2] [Zn(II)]
Oxygen lost % (24 hr, 100 C.) ([4]; metal ion added 10 ppm): 10%

OCC(O)CO [Glycerin]
Color (color fading grade) ([1]; propylene glycol, 2.76% carbamide peroxide, 0.002% Brilliant Blue, compound amount 20%, 60 days, room temperature): ++ | Color (color fading grade) ([2]; water, 2.76% carbamide peroxide, 0.002% Brilliant Blue, compound amount 20%, 60 days, room temperature): +

Cocamidopropyl betaine
Color (color fading grade) [1, 9]: ++++ | Color (color fading grade) [2, 10]: ++++

O=P([O-])(O)OP(=O)([O-])O.[Na+].[Na+] [Sodium acid pyrophosphate]
Color (color fading grade) [1, 7]: ++ | Color (color fading grade) [2, 8]: ++

CCCCCCCCCC[N+](C)(C)CCCCCCCCCC.O=C1CC[C@@H](C(=O)[O-])N1 [PODA, Proline, 5-oxo-, ion(1-), N-decyl-N,N-dimethyl-1-decanaminium (1:1)]
Color (color fading grade) [1, 11]: ++ | Color (color fading grade) [2, 12]: +

[F-].[Na+] [Sodium fluoride]
Color (color fading grade) [1, 11]: +++ | Color (color fading grade) [2, 12]: ++

Sucrose fatty acid ester
Color (color fading grade) [1, 7]: + | Color (color fading grade) [2, 8]: +

[Fe+3] [Fe(III)]
Oxygen lost % (24 hr, 100 C.) ([4]; metal ion added 10 ppm): 15%

CCCCCCCCCCCCCCCC[n+]1ccccc1.[Cl-] [Hexadecylpyridinium Chloride, Hexadecylpyridinium chloride, reference compound]
Color (color fading grade) [1, 11]: ++ | Color (color fading grade) [2, 12]: +
